Numbered stars: 1 amine (or outer) side, 2 acyl side, 3 side chain; on linkers, the order of the positions; unused ones are H or OH. Bridge positions count the residues as written; N and C are the ends. Square brackets hold non-standard residues; d marks the D form. Peptide text beside a SMILES is read from it. ξ: configuration not given here. X7 = CCCCCCCCCCCCC(C)[C@H](CC(=O)[*:1])O[*:2]; X2 = NC(=O)CC(O)C(N[*:1])C(=O)[*:2]; X1 = O=C(C1C(O)CCN1[*:1])[*:2]; ξY = NC(Cc1ccc(O)cc1)C(=O)O; ξHyp = O=C(O)C1CC(O)CN1; ξOrn = NCCCC(N)C(=O)O; ξT = CC(O)C(N)C(=O)O; ξV = CC(C)C(N)C(=O)O; ξA = CC(N)C(=O)O
Assays:
[1] = Acute toxicity on administration to mice for 4 weeks; assay type: in vivo; conditions: 5 mg/kg and 30 mg/kg
[2] = Solubility; conditions: solvents in which soluble

CCCCCCCCCCCCC(C)[C@@H]1CC(=O)NC(C(C)O)C(=O)NC(C)C(=O)NC(Cc2ccc(O)cc2)C(=O)NC(C(C)C)C(=O)N2CC(O)CC2C(=O)NC(C(C)O)C(=O)NC(C(C)O)C(=O)N2CCC(O)C2C(=O)NC(C(O)CC(N)=O)C(=O)NCC(=O)NC(C(C)O)C(=O)NC(CCCN)C(=O)O1 (some centres unmarked) [Aerothricin 1] ([ξT][ξA][ξY][ξV][ξHyp][ξT][ξT][X1][X2]G[ξT][ξOrn]; linker N-C via X7)
acute toxicity [1]: no acute toxicity
Solubility [2]: Soluble: water, methanol, dimethylsulfoxide
